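Protocol summary: plate cells (96-well), add compound at 5 concentrations, incubate 48 h, interpolate endpoints linearly. The concentration for 50% growth inhibition is given as GI50. Definition used: TGI = concentration required for complete inhibition of growth.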
Assays:
Test in all cases: DTP human tumour cell line panel, 48 h
KM12 colon = tested on: KM12 colon
SW-620 colon = tested on: SW-620 colon
SN12C renal = tested on: SN12C renal
IGROV1 ovarian = tested on: IGROV1 ovarian
OVCAR-5 ovarian = tested on: OVCAR-5 ovarian
A549 NSCLC = tested on: A549 NSCLC
K-562 leukemia = tested on: K-562 leukemia
CAKI-1 renal = tested on: CAKI-1 renal
HL-60(TB) leukemia = tested on: HL-60(TB) leukemia
MDA-MB-231 breast = tested on: MDA-MB-231 breast
HS 578T breast = tested on: HS 578T breast
EKVX NSCLC = tested on: EKVX NSCLC
A498 renal = tested on: A498 renal
RXF 393 renal = tested on: RXF 393 renal
SNB-75 CNS = tested on: SNB-75 CNS
SK-OV-3 ovarian = tested on: SK-OV-3 ovarian
NCI-H23 lung = tested on: NCI-H23 lung
NCI/ADR-RES ovarian = tested on: NCI/ADR-RES ovarian
HOP-62 NSCLC = tested on: HOP-62 NSCLC
MDA-MB-435 = tested on: MDA-MB-435
NCI-H460 lung = tested on: NCI-H460 lung
MOLT-4 leukemia = tested on: MOLT-4 leukemia
CCRF-CEM leukemia = tested on: CCRF-CEM leukemia
RPMI-8226 leukemia = tested on: RPMI-8226 leukemia
NCI-H226 lung = tested on: NCI-H226 lung
SF-539 CNS = tested on: SF-539 CNS
ACHN renal = tested on: ACHN renal
TK-10 renal = tested on: TK-10 renal
786-0 renal = tested on: 786-0 renal
HOP-92 NSCLC = tested on: HOP-92 NSCLC
COLO 205 colon = tested on: COLO 205 colon
PC-3 prostate = tested on: PC-3 prostate
SF-295 CNS = tested on: SF-295 CNS
OVCAR-4 ovarian = tested on: OVCAR-4 ovarian
SR leukemia = tested on: SR leukemia
LOX IMVI melanoma = tested on: LOX IMVI melanoma
BT-549 breast = tested on: BT-549 breast
T-47D breast = tested on: T-47D breast
OVCAR-8 ovarian = tested on: OVCAR-8 ovarian
HT29 colon = tested on: HT29 colon
HCC-2998 colon = tested on: HCC-2998 colon
UACC-257 melanoma = tested on: UACC-257 melanoma
MALME-3M melanoma = tested on: MALME-3M melanoma
SF-268 CNS = tested on: SF-268 CNS
SK-MEL-28 melanoma = tested on: SK-MEL-28 melanoma
SK-MEL-2 melanoma = tested on: SK-MEL-2 melanoma
UO-31 renal = tested on: UO-31 renal
HCT-15 colon = tested on: HCT-15 colon
UACC-62 melanoma = tested on: UACC-62 melanoma
HCT-116 colon = tested on: HCT-116 colon
NCI-H522 lung = tested on: NCI-H522 lung
SK-MEL-5 melanoma = tested on: SK-MEL-5 melanoma
MCF7 breast = tested on: MCF7 breast
OVCAR-3 ovarian = tested on: OVCAR-3 ovarian
DU-145 prostate = tested on: DU-145 prostate
M14 melanoma = tested on: M14 melanoma
SNB-19 CNS = tested on: SNB-19 CNS
U251 CNS = tested on: U251 CNS

COC(=O)C1=C(C)NC(CF)=C(C(=O)OC)C1c1cccc2c(=O)c3ccccc3oc12 (stereo unspecified)
TGI (KM12 colon): > 100 µM
TGI (SW-620 colon): > 100 µM
TGI (SN12C renal): > 100 µM
TGI (IGROV1 ovarian): 18.9 µM
TGI (OVCAR-5 ovarian): > 100 µM
TGI (A549 NSCLC): > 100 µM
TGI (K-562 leukemia): > 100 µM
TGI (CAKI-1 renal): 62.3 µM
TGI (HL-60(TB) leukemia): > 100 µM
TGI (MDA-MB-231 breast): > 100 µM
TGI (HS 578T breast): > 100 µM
TGI (EKVX NSCLC): > 100 µM
TGI (A498 renal): 94.5 µM
TGI (RXF 393 renal): > 100 µM
TGI (SNB-75 CNS): > 100 µM
TGI (SK-OV-3 ovarian): > 100 µM
TGI (NCI-H23 lung): > 100 µM
TGI (NCI/ADR-RES ovarian): 27.8 µM
TGI (HOP-62 NSCLC): > 100 µM
TGI (MDA-MB-435): > 100 µM
TGI (NCI-H460 lung): > 100 µM
TGI (MOLT-4 leukemia): > 100 µM
TGI (CCRF-CEM leukemia): > 100 µM
TGI (RPMI-8226 leukemia): > 100 µM
TGI (NCI-H226 lung): > 100 µM
TGI (SF-539 CNS): > 100 µM
TGI (ACHN renal): > 100 µM
TGI (TK-10 renal): > 100 µM
TGI (786-0 renal): 33.8 µM
TGI (HOP-92 NSCLC): 35.3 µM
TGI (COLO 205 colon): 22.8 µM
TGI (PC-3 prostate): 8.57 µM
TGI (SF-295 CNS): 22.7 µM
TGI (OVCAR-4 ovarian): > 100 µM
TGI (SR leukemia): > 100 µM
TGI (LOX IMVI melanoma): > 100 µM
TGI (BT-549 breast): > 100 µM
TGI (T-47D breast): > 100 µM
TGI (OVCAR-8 ovarian): > 100 µM
TGI (HT29 colon): > 100 µM
TGI (HCC-2998 colon): > 100 µM
TGI (UACC-257 melanoma): > 100 µM
TGI (MALME-3M melanoma): 83.6 µM
TGI (SF-268 CNS): 63.6 µM
TGI (SK-MEL-28 melanoma): > 100 µM
TGI (SK-MEL-2 melanoma): > 100 µM
TGI (UO-31 renal): 92.8 µM
TGI (HCT-15 colon): > 100 µM
TGI (UACC-62 melanoma): > 100 µM
TGI (HCT-116 colon): > 100 µM
TGI (NCI-H522 lung): > 100 µM
TGI (SK-MEL-5 melanoma): > 100 µM
TGI (MCF7 breast): > 100 µM
TGI (OVCAR-3 ovarian): 66.8 µM
TGI (DU-145 prostate): > 100 µM

COc1cc(C2C=C(C)N=C3SC=C(C)N32)cc(OC)c1OC (stereo unspecified)
GI50 (KM12 colon): 1.33 µM
TGI (KM12 colon): 4.55 µM
GI50 (SW-620 colon): 0.516 µM
TGI (SW-620 colon): 9.43 µM
GI50 (SN12C renal): 2.23 µM
TGI (SN12C renal): 7.53 µM
GI50 (IGROV1 ovarian): 2.22 µM
TGI (IGROV1 ovarian): 7.3 µM
GI50 (OVCAR-5 ovarian): 1.55 µM
TGI (OVCAR-5 ovarian): 3.83 µM
GI50 (A549 NSCLC): 2.1 µM
TGI (A549 NSCLC): 6.56 µM
GI50 (HL-60(TB) leukemia): 0.76 µM
TGI (HL-60(TB) leukemia): 7.09 µM
GI50 (MDA-MB-231 breast): 1.5 µM
TGI (MDA-MB-231 breast): 9.26 µM
GI50 (HS 578T breast): 2.95 µM
TGI (HS 578T breast): 74.2 µM
GI50 (A498 renal): 2.39 µM
TGI (A498 renal): 5.64 µM
GI50 (M14 melanoma): 1.13 µM
TGI (M14 melanoma): 2.89 µM
GI50 (RXF 393 renal): 1.49 µM
TGI (RXF 393 renal): 3.14 µM
GI50 (SNB-75 CNS): 4.3 µM
TGI (SNB-75 CNS): 20.1 µM
GI50 (SK-OV-3 ovarian): 2.91 µM
TGI (SK-OV-3 ovarian): 8.54 µM
GI50 (NCI-H23 lung): 1.77 µM
TGI (NCI-H23 lung): 5.41 µM
GI50 (NCI/ADR-RES ovarian): 0.454 µM
TGI (NCI/ADR-RES ovarian): > 100 µM
GI50 (HOP-62 NSCLC): 2.08 µM
TGI (HOP-62 NSCLC): 4.53 µM
GI50 (MDA-MB-435): 0.631 µM
TGI (MDA-MB-435): 6.45 µM
GI50 (NCI-H460 lung): 2.11 µM
TGI (NCI-H460 lung): 7.33 µM
GI50 (MOLT-4 leukemia): 0.445 µM
TGI (MOLT-4 leukemia): > 100 µM
GI50 (CCRF-CEM leukemia): 0.312 µM
TGI (CCRF-CEM leukemia): > 100 µM
GI50 (RPMI-8226 leukemia): 0.385 µM
TGI (RPMI-8226 leukemia): 2.57 µM
GI50 (NCI-H226 lung): 1.88 µM
TGI (NCI-H226 lung): 5.81 µM
GI50 (SF-539 CNS): 0.353 µM
TGI (SF-539 CNS): 4.6 µM
GI50 (ACHN renal): 0.618 µM
TGI (ACHN renal): 3.61 µM
GI50 (TK-10 renal): 2.22 µM
TGI (TK-10 renal): 5.61 µM
GI50 (786-0 renal): 0.827 µM
TGI (786-0 renal): 2.67 µM
GI50 (HOP-92 NSCLC): 2.08 µM
TGI (HOP-92 NSCLC): 5.95 µM
GI50 (COLO 205 colon): 1.32 µM
TGI (COLO 205 colon): 3.04 µM
GI50 (PC-3 prostate): 1.56 µM
TGI (PC-3 prostate): 5.88 µM
GI50 (SF-295 CNS): 2.07 µM
TGI (SF-295 CNS): 6.19 µM
GI50 (OVCAR-4 ovarian): 3.99 µM
TGI (OVCAR-4 ovarian): > 100 µM
GI50 (SR leukemia): 0.249 µM
TGI (SR leukemia): > 100 µM
GI50 (LOX IMVI melanoma): 0.379 µM
TGI (LOX IMVI melanoma): 1.73 µM
GI50 (BT-549 breast): 0.531 µM
TGI (BT-549 breast): 2.09 µM
GI50 (T-47D breast): 1.91 µM
TGI (T-47D breast): 7.27 µM
GI50 (OVCAR-8 ovarian): 0.342 µM
TGI (OVCAR-8 ovarian): 10.1 µM
GI50 (HCC-2998 colon): 1.94 µM
TGI (HCC-2998 colon): 3.54 µM
GI50 (UACC-257 melanoma): 1.77 µM
TGI (UACC-257 melanoma): 4.89 µM
GI50 (SF-268 CNS): 1.4 µM
TGI (SF-268 CNS): 11.4 µM
GI50 (SK-MEL-28 melanoma): 0.507 µM
TGI (SK-MEL-28 melanoma): 2.01 µM
GI50 (SNB-19 CNS): 2.32 µM
TGI (SNB-19 CNS): 15.8 µM
GI50 (SK-MEL-2 melanoma): 2.04 µM
TGI (SK-MEL-2 melanoma): 4.94 µM
GI50 (UO-31 renal): 1.13 µM
TGI (UO-31 renal): 2.47 µM
GI50 (HCT-15 colon): 0.246 µM
TGI (HCT-15 colon): 0.822 µM
GI50 (UACC-62 melanoma): 0.473 µM
TGI (UACC-62 melanoma): 1.87 µM
GI50 (HCT-116 colon): 0.171 µM
TGI (HCT-116 colon): 0.336 µM
GI50 (U251 CNS): 0.671 µM
TGI (U251 CNS): 2.79 µM
GI50 (NCI-H522 lung): 0.53 µM
TGI (NCI-H522 lung): 1.81 µM
GI50 (SK-MEL-5 melanoma): 1 µM
TGI (SK-MEL-5 melanoma): 2.21 µM
GI50 (MCF7 breast): 0.333 µM
TGI (MCF7 breast): 11.9 µM
GI50 (OVCAR-3 ovarian): 0.781 µM
TGI (OVCAR-3 ovarian): 7.66 µM
GI50 (DU-145 prostate): 1.81 µM
TGI (DU-145 prostate): > 100 µM

— PubChem BioAssay (NCI)
